Experimental data as given in patent US7579368B2, “Cis-imidazolines” (Hoffman-La Roche Inc., priority 2005, dated 2009).
pIC50: −log10 of the molar value. Counter-ions that a name gives are not always drawn.

Biological target: interaction between p53 and MDM2 proteins (recombinant GST-tagged MDM2 and p53 peptide) (Homo sapiens, UniProt Q00987)
Assay: HTRF assay of inhibition of the p53-MDM2 interaction (GST-MDM2 / biotinylated p53 peptide)
Type: binding
Conditions: 90 nM biotinylated p53 peptide, 160 ng/ml GST-MDM2, 37° C. 1 h
Procedure: The ability of the compounds to inhibit the interaction between p53 and MDM2 proteins was measured by an HTRF (homogeneous time-resolved fluorescence) assay in which recombinant GST-tagged MDM2 binds to a peptide that resembles the MDM2-interacting region of p53 (Lane et al.). Binding of GST-MDM2 protein and p53-peptide (biotinylated on its N-terminal end) is registered by the FRET (fluorescence resonance energy transfer) between Europium (Eu)-labeled anti-GST antibody and streptavidin-conjugated Allophycocyanin (APC).
Test is performed in black flat-bottom 384-well plates (Costar) in a total volume of 40 uL containing: 90 nM biotinylated peptide, 160 ng/ml GST-MDM2, 20 nM streptavidin-APC (PerkinElmerWallac), 2 nM Eu-labeled anti-GST-antibody (PerkinElmerWallac), 0.2% bovine serum albumin (BSA), 1 mM dithiothreitol (DTT) and 20 mM […] (TBS) buffer as follows: Add 10 uL of GST-MDM2 (640 ng/ml working solution) in reaction buffer to each well. Add 10 uL diluted compounds (1:5 dilution in reaction buffer) to each well, mix by shaking. Add 20 uL biotinylated p53 peptide (180 nM working solution) in reaction buffer to each well and mix on shaker. Incubate at 37° C. for 1 h. Add 20 uL streptavidin-APC and Eu-anti-GST antibody mixture (6 nM Eu-anti-GST and 60 nM streptavidin-APC working solution) in TBS buffer with 0.2% BSA, shake at room temperature for 30 minutes and read using a TRF-capable plate reader at 665 and 615 nm (Victor 5, Perkin ElmerWallac). If not specified, the reagents were purchased from Sigma Chemical Co.

Chain of interaction between p53 and MDM2 proteins (recombinant GST-tagged MDM2 and p53 peptide) (Q00987 whole entry): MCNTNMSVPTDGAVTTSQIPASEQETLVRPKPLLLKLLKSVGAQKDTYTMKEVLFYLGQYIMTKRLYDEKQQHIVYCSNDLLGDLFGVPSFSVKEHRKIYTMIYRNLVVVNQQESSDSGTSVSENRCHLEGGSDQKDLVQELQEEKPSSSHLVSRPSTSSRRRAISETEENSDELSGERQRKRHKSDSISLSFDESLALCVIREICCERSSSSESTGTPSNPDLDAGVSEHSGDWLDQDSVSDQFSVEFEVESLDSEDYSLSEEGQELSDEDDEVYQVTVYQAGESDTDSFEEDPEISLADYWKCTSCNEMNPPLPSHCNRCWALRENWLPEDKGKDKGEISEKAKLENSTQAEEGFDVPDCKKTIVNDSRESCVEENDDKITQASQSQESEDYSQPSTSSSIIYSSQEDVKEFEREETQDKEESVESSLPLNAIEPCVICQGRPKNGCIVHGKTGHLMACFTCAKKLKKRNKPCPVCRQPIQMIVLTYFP

Row | SMILES | pIC50
1 | CCOc1cc(Cl)c(S(N)(=O)=O)cc1C1=N[C@@H](c2ccc(Cl)cc2)[C@@H](c2ccc(Cl)cc2)N1C(=O)N1CCN(CC(=O)N2CCOCC2)CC1 [Example 34, 5-{(4S,5R)-4,5-Bis-(4-chloro-phenyl)-1-[4-(2-morpholin-4-yl-2-oxo-ethyl)-piperazine-1-carbonyl]-4,5-dihydro-1H-imidazol-2-yl}-2-chloro-4-ethoxy-benzenesulfonamide] | 8.05
2 | CCOc1cc(C#N)ccc1C1=N[C@@H](c2ccc(Cl)cc2)[C@@H](c2ccc(Cl)cc2)N1C(=O)N1CCN(CCO)CC1 [Example 63, 4-{(4S,5R)-4,5-Bis-(4-chloro-phenyl)-1-[4-(2-hydroxy-ethyl)-piperazine-1-carbonyl]-4,5-dihydro-1H-imidazol-2-yl}-3-ethoxy-benzonitrile] | 8.05
3 | CCOc1ccc(S(=O)(=O)N(CCOC)CCOC)cc1C1=NC(c2ccc(Cl)cc2)C(c2ccc(Cl)cc2)N1C(=O)N1CCNC(=O)C1 (stereo not shown) [Example 105, 3-[4,5-Bis-(4-chloro-phenyl)-1-(3-oxo-piperazine-1-carbonyl)-4,5-dihydro-1H-imidazol-2-yl]-4-ethoxy-N,N-bis-(2-methoxy-ethyl)-benzenesulfonamide] | 7.24
4 | CCOc1ccc(S(=O)(=O)NC(C)COC)cc1C1=NC(c2ccc(Cl)cc2)C(c2ccc(Cl)cc2)N1C(=O)N1CCN(CC(=O)NC)CC1 (stereo not shown) [Example 130, 2-(4-{4,5-Bis-(4-chloro-phenyl)-2-[2-ethoxy-5-(2-methoxy-1-methyl-ethylsulfamoyl)-phenyl]-4,5-dihydro-imidazole-1-carbonyl}-piperazin-1-yl)-N-methyl-acetamide] | 7.24
5 | CCOc1cc(Cl)c(S(=O)(=O)N2CCCC2)cc1C1=N[C@@H](c2ccc(Cl)cc2)[C@@H](c2ccc(Cl)cc2)N1C(=O)N1CCN(CCS(C)(=O)=O)CC1 [Example 174, [(4S,5R)-2-[4-Chloro-2-ethoxy-5-(pyrrolidine-1-sulfonyl)-phenyl]-4,5-bis-(4-chloro-phenyl)-4,5-dihydro-imidazol-1-yl]-[4-(2-methanesulfonyl-ethyl)-piperazin-1-yl]-methanone hydrochloride] | 8.30

Now from value to compound:

Row | pIC50 | SMILES
6 | 8.30 | CCOc1cc(Cl)c(S(=O)(=O)N2CCCCC2)cc1C1=N[C@@H](c2ccc(Cl)cc2)[C@@H](c2ccc(Cl)cc2)N1C(=O)N1CCN(CC(=O)N2CCOCC2)CC1 [Example 175, 2-{4-[(4S,5R)-2-[4-Chloro-2-ethoxy-5-(piperidine-1-sulfonyl)-phenyl]-4,5-bis-(4-chloro-phenyl)-4,5-dihydro-imidazole-1-carbonyl]-piperazin-1-yl}-1-morpholin-4-yl-ethanone hydrochloride]
7 | 6.82 | CCOc1cc(Cl)c(C#N)cc1C1=N[C@@H](c2ccc(Cl)cc2)[C@@H](c2ccc(Cl)cc2)N1C(=O)N1CCNC(=O)C1 [Example 234, 5-[(4S,5R)-4,5-Bis-(4-chloro-phenyl)-1-(3-oxo-piperazine-1-carbonyl)-4,5-dihydro-1H-imidazol-2-yl]-2-chloro-4-ethoxy-benzonitrile]
8 | 6.51 | CCOc1cc(N(C(=O)N2CCNC(=O)C2)S(C)(=O)=O)ccc1C1=N[C@@H](c2ccc(Cl)cc2)[C@@H](c2ccc(Cl)cc2)N1C(=O)N1CCNC(=O)C1 [Example 275, N-{4-[(4S,5R)-4,5-Bis-(4-chloro-phenyl)-1-(3-oxo-piperazine-1-carbonyl)-4,5-dihydro-1H-imidazol-2-yl]-3-ethoxy-phenyl}-N-(3-oxo-piperazine-1-carbonyl)-methanesulfonamide]
9 | 6.80 | CCOc1cc(NC(=O)C(C)(C)C)ccc1C1=N[C@@H](c2ccc(Cl)cc2)[C@@H](c2ccc(Cl)cc2)N1C(=O)N1CCNC(=O)C1 [Example 277, N-{4-[(4S,5R)-4,5-Bis-(4-chloro-phenyl)-1-(3-oxo-piperazine-1-carbonyl)-4,5-dihydro-1H-imidazol-2-yl]-3-ethoxy-phenyl}-2,2-dimethyl-propionamide]
10 | 6.26 | CCOc1cc(C#CC(C)(C)C)ccc1C1=N[C@@H](c2ccc(Cl)cc2)[C@@H](c2ccc(Cl)cc2)N1C(=O)N1CCN(CC(=O)N2CCOCC2)CC1 [Example 405, 2-(4-{(4S,5R)-4,5-Bis-(4-chloro-phenyl)-2-[4-(3,3-dimethyl-but-1-ynyl)-2-ethoxy-phenyl]-4,5-dihydro-imidazole-1-carbonyl}-piperazin-1-yl)-1-morpholin-4-yl-ethanone hydrochloride]
